Among the data in ChEMBL document CHEMBL1122842, “Beta-adrenoceptor activity of the stereoisomers of the bufuralol alcohol and ketone metabolites” (J Med Chem, 1985) are ED30 values, retold here.

A value given as a limit tells only on which side of the number the result lay.

Beta-1 adrenergic receptor (Rattus norvegicus), sequence (P18090 whole entry, looked up): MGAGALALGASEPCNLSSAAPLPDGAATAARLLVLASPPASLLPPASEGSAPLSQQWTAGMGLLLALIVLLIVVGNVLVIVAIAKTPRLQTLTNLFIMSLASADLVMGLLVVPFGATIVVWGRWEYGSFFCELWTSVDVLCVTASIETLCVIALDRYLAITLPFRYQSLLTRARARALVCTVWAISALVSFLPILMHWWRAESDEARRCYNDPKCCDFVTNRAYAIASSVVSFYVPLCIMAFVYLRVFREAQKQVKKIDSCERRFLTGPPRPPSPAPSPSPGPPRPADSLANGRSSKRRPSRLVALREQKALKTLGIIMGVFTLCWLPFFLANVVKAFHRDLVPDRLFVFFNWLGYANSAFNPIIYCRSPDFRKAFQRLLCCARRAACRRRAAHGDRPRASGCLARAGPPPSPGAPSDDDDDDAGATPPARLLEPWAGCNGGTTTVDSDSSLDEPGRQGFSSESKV

The assay addresses Beta-1 adrenergic receptor (Rattus norvegicus) (UniProt P18090). To be noted: Heart.
Description: Beta-1 adrenergic receptor agonist activity as increased heart rate by 30 beats/min in rats
Take `CC(O)c1cccc2cc([C@@H](O)CNC(C)(C)C)oc12` (stereo in doubt; form 1): the ED30 turned out to be 0.019 mg/kg. With `CC(=O)c1cccc2cc([C@H](O)CNC(C)(C)C)oc12` the figure was 0.032 mg/kg. As to `CC(O)c1cccc2cc([C@H](O)CNC(C)(C)C)oc12` (stereo in doubt; form 1), the ED30 is greater than 1 mg/kg.

`CC(O)c1cccc2cc([C@H](O)CNC(C)(C)C)oc12` (stereo in doubt; form 2) registered an ED30 of 0.305 mg/kg. `CC(O)c1cccc2cc([C@@H](O)CNC(C)(C)C)oc12` (stereo in doubt; form 2) gave an ED30 of 0.0007 mg/kg. `CC(=O)c1cccc2cc([C@@H](O)CNC(C)(C)C)oc12` yielded an ED30 of 0.0006 mg/kg.

In turn, `CCc1cccc2cc([C@H](O)CNC(C)(C)C)oc12` showed an ED30 greater than 1 mg/kg.

The compound `CCc1cccc2cc([C@@H](O)CNC(C)(C)C)oc12` came in with an ED30 of 0.053 mg/kg.
